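Dose response: 5 concentrations. Exposure: 48 h. Format: 96-well plates. Endpoint: linear interpolation; highest concentration if not reached. GI50 is the concentration that inhibits growth by half.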 Activity calls are given as the source filed them. No stated cut-off is given here; in the data, active = GI50 up to about 1.1 µM and inactive = higher.
Tests used:
Assay in all cases: inhibition of tumour cell growth, NCI panel, 48 h
A498 = test system: A498
ACHN = test system: ACHN
BT-549 = test system: BT-549
CCRF-CEM = test system: CCRF-CEM
DU-145 = test system: DU-145
EKVX = test system: EKVX
HCC 2998 = test system: HCC 2998
HCT-116 = test system: HCT-116
HCT-15 = test system: HCT-15
HL-60 = test system: HL-60
HOP-62 = test system: HOP-62
HT-29 = test system: HT-29
Hs-578T = test system: Hs-578T
K562 = test system: K562
KM12 = test system: KM12
LOX IMVI = test system: LOX IMVI
M14 = test system: M14
MCF7 = test system: MCF7
MDA-MB-231 = test system: MDA-MB-231
MDA-MB-435 = test system: MDA-MB-435
MDA-N = test system: MDA-N
MOLT-4 = test system: MOLT-4
Malme-3M = test system: Malme-3M
NCI-H226 = test system: NCI-H226
NCI-H23 = test system: NCI-H23
NCI-H460 = test system: NCI-H460
NCI-H522 = test system: NCI-H522
OVCAR-3 = test system: OVCAR-3
OVCAR-5 = test system: OVCAR-5
RPMI-8226 = test system: RPMI-8226
RXF 393 = test system: RXF 393
SF-268 = test system: SF-268
SF-539 = test system: SF-539
SK-MEL-28 = test system: SK-MEL-28
SK-MEL-2 = test system: SK-MEL-2
SK-OV-3 = test system: SK-OV-3
SNB-19 = test system: SNB-19
SNB-75 = test system: SNB-75
SR = test system: SR
T47D = test system: T47D
TK-10 = test system: TK-10
U-251 = test system: U-251
UACC-257 = test system: UACC-257
UACC-62 = test system: UACC-62
UO-31 = test system: UO-31
786-0 = test system: 786-0
A549 = test system: A549
CAKI-1 = test system: CAKI-1
COLO 205 = test system: COLO 205
IGROV-1 = test system: IGROV-1
OVCAR-4 = test system: OVCAR-4
OVCAR-8 = test system: OVCAR-8
PC-3 = test system: PC-3
SF-295 = test system: SF-295
SK-MEL-5 = test system: SK-MEL-5
SN12C = test system: SN12C
SW-620 = test system: SW-620

Measured: GI50

CCOC(=O)NC(Nc1ccc(Cl)cn1)(C(F)(F)F)C(F)(F)F
> 100 µM: HCT-15
inactive: A498 > 100 µM | ACHN > 100 µM | BT-549 > 100 µM | CCRF-CEM > 100 µM | DU-145 > 100 µM | EKVX > 100 µM | HCC 2998 > 100 µM | HCT-116 > 100 µM | HL-60 > 100 µM | HOP-62 > 100 µM | HT-29 > 100 µM | Hs-578T > 100 µM | K562 > 100 µM | KM12 > 100 µM | LOX IMVI > 100 µM | M14 > 100 µM | MCF7 > 100 µM | MDA-MB-231 > 100 µM | MDA-MB-435 > 100 µM | MDA-N > 100 µM | MOLT-4 > 100 µM | Malme-3M > 100 µM | NCI-H226 > 100 µM | NCI-H23 > 100 µM | NCI-H460 > 100 µM | NCI-H522 > 100 µM | OVCAR-3 > 100 µM | OVCAR-5 > 100 µM | RPMI-8226 > 100 µM | RXF 393 97.5 µM | SF-268 > 100 µM | SF-539 > 100 µM | SK-MEL-28 > 100 µM | SK-MEL-2 > 100 µM | SK-OV-3 > 100 µM | SNB-19 > 100 µM | SNB-75 > 100 µM | SR > 100 µM | T47D > 100 µM | TK-10 > 100 µM | U-251 > 100 µM | UACC-257 > 100 µM | UACC-62 > 100 µM | UO-31 41.4 µM

C=C(CO)[C@H]1Oc2ccc(C(C)=O)cc2[C@@H]1O
80.9 µM: HCT-15
inactive: 786-0 > 100 µM | A498 > 100 µM | A549 > 100 µM | ACHN > 100 µM | BT-549 33.2 µM | CAKI-1 > 100 µM | CCRF-CEM > 100 µM | COLO 205 > 100 µM | DU-145 > 100 µM | EKVX > 100 µM | HCC 2998 > 100 µM | HCT-116 > 100 µM | HL-60 > 100 µM | HOP-62 > 100 µM | HT-29 > 100 µM | Hs-578T 77.8 µM | IGROV-1 > 100 µM | K562 67.9 µM | KM12 > 100 µM | LOX IMVI > 100 µM | M14 > 100 µM | MCF7 > 100 µM | MDA-MB-231 > 100 µM | MDA-MB-435 36.8 µM | MDA-N 22.2 µM | MOLT-4 > 100 µM | Malme-3M 53.3 µM | NCI-H226 > 100 µM | NCI-H23 > 100 µM | NCI-H460 > 100 µM | NCI-H522 88.7 µM | OVCAR-3 > 100 µM | OVCAR-4 > 100 µM | OVCAR-5 > 100 µM | OVCAR-8 > 100 µM | PC-3 > 100 µM | RPMI-8226 > 100 µM | RXF 393 > 100 µM | SF-268 > 100 µM | SF-295 > 100 µM | SF-539 > 100 µM | SK-MEL-28 > 100 µM | SK-MEL-2 > 100 µM | SK-MEL-5 > 100 µM | SK-OV-3 > 100 µM | SN12C > 100 µM | SNB-19 > 100 µM | SNB-75 95.1 µM | SR > 100 µM | SW-620 > 100 µM | T47D > 100 µM | TK-10 > 100 µM | U-251 > 100 µM | UACC-257 > 100 µM | UACC-62 > 100 µM | UO-31 > 100 µM

Reference: ChEMBL document CHEMBL1201862, “PubChem BioAssay data set” (2004)
